Measured values taken from patent US10947182B1, “Cinnamyl alcohol cassic acid ester with antibacterial activity and a method of preparing the same” (SHAANXI UNIVERSITY OF SCIENCE AND TECHNOLOGY, priority 2020, dated 2021).

Legend:
[1] = tested on: Staphylococcus aureus (SAU); experiment: paper diffusion method drug sensitivity test; format: cell-based; conditions: 30 μg/tablet paper disc (6.35 mm), LB plate, 37° C., 24 h
Experimental: (§1) The antimicrobial efficacy was determined by a paper diffusion method drug sensitivity test.
(§2) Experimental strains: Staphylococcus aureus (SAU), multi-resistant Staphylococcus aureus 18-206. The experimental strain was identified by Huashan Hospital Affiliated to Fudan University (Institute of Antibiotic of Fudan University).
(§3) Drug sensitive paper: The drug sensitive paper is a special drug sensitive paper with a diameter of 6.35 mm and a water absorption of 0.02 mL. The control drug was cefazolin (30 μg/tablet); the test drugs were cassic acid (30 μg/tablet), cinnamyl alcohol (30 μg/tablet) and cinnamyl alcohol cassic acid ester (30 μg/tablet).
(§4) Reagents: LB agar medium, LA broth medium, 0.5% DMSO solution.
(§5) The experimental strains were inoculated in non-selective medium and placed in air at 37° C. for 24 h. Pick a single colony that grows well and inoculate it into broth medium, incubate at 35° C.±2° C. for 6 hours, and use LA broth medium to calibrate the concentration of the bacterial solution to 0.5 Mie turbidimetric tube (1.5×10^8 CFU/mL). A bacterial suspension is obtained.
(§6) Weigh the LB dry powder, sterilize at 103.4 Kpa, 121.3° C. high-pressure steam for 15 min, and then put it in a 40° C.-50° C. water bath. Place a sterile empty plate (inner diameter 9 cm) on the surface of the ultra-clean table water table, shake and shake LB, and then pour the plate. The thickness of each plate is 3 mm to 4 mm. After the plate is cooled at room temperature, store it in the refrigerator at 2° C.-8° C. Use a sterile cotton swab to dip the bacterial solution, and evenly coat the surface of the LB plate 3 times. After inoculation of the bacterial suspension, the LB plate was dried at room temperature for 3 min to 5 min. Use sterile forceps to closely attach the antibacterial drug paper to the dish. Put the dish upside down and place it in a 37° C. incubator for 24 h. Observe the result and measure the diameter. Taking 0.5% DMSO solution as a negative control, the antibacterial activity is expressed by the diameter of the inhibition zone. The inhibition zone ≥17 mm, sensitive; the inhibition zone is 15 mm-16 mm, intermediary; the inhibition zone ≤14 mm, drug resistance.

[2] = tested on: multi-resistant Staphylococcus aureus 18-206; experiment: paper diffusion method drug sensitivity test; format: cell-based; conditions: for Zone of inhibition: Multi-resistant Staphylococcus aureus 18-206, 30 μg/tablet paper disc (6.35 mm), LB plate, 37° C., 24 h; for inhibitory effect on drug-resistant bacteria (in words): multi-resistant Staphylococcus aureus 18-206, summary of Table 1
Experimental: as §1, §2, §3, §4, §5, §6

Row | Compound | Zone of inhibition [1] [mm] | Zone of inhibition [2] [mm] | inhibitory effect on drug-resistant bacteria (in words) [2]
1 | O=C(O)c1cc(O)c2c(c1)C(=O)c1cccc(O)c1C2=O [Cassic acid] | 7 | 7 | –
2 | Cc1nnc(SCC2=C(C(=O)O)N3C(=O)[C@@H](NC(=O)Cn4cnnn4)[C@H]3SC2)s1 [Cefazolin] | 34 | 22 | –
3 | O=C(OC/C=C/c1ccccc1)c1cc(O)c2c(c1)C(=O)c1cccc(O)c1C2=O [Cinnamyl alcohol cassic acid ester, Cinnamyl 4,5-dihydroxy-9,10-dioxo-9,10-dihydroanthracene-2-carboxylate] | 13 | 15 | strong suppression effect
4 | OCC=Cc1ccccc1 [Cinnamyl alcohol] | 17 | 0 | no inhibitory effect
